In ChEMBL document CHEMBL1158147, “Ultraviolet-mediated cytotoxic activity of phenylheptatriyne from Bidens pilosa L” (J Nat Prod, 1979):
Calls of active or inactive are those of the source. The rule behind the calls is not given here.

Tests used:
Bacillus subtilis = assay: Phototoxicity against Bacillus subtilis at 5 ug/disk in presence of cool-white fluorescent light; assay type: functional, organism-based
Enterococcus faecalis = assay: Phototoxicity against Streptococcus fecalis at 5 ug/disk in dark; assay type: functional, organism-based
Escherichia coli = assay: Phototoxicity against Escherichia coli at 5 ug/disk in dark; assay type: functional, organism-based
Candida albicans = assay: Phototoxicity against Candida albicans at 5 ug/disk in dark; assay type: functional, organism-based
Saccharomyces cerevisiae [1] = assay: Phototoxicity against Saccharomyces cerevisiae at 5 ug/disk in presence of long wave UV light; assay type: functional, organism-based
Saccharomyces cerevisiae [2] = assay: Phototoxicity against Saccharomyces cerevisiae at 5 ug/disk in dark; assay type: functional, organism-based
Sporobolomyces [3] = assay: Phototoxicity against Sporobolomyces sp. Y138 at 5 ug/disk in presence of long wave UV light; assay type: functional, organism-based
Sporobolomyces [4] = assay: Phototoxicity against Sporobolomyces sp. Y138 at 5 ug/disk in dark; assay type: functional, organism-based
Torula = assay: Phototoxicity against Torula sp. at 5 ug/disk in dark; assay type: functional, organism-based
Fusarium sp. [5] = assay: Phototoxicity against Fusarium sp. at 5 ug/disk in presence of long wave UV light; assay type: functional, organism-based
Fusarium sp. [6] = assay: Phototoxicity against Fusarium sp. at 5 ug/disk in dark; assay type: functional, organism-based
Microsporum canis [7] = assay: Phototoxicity against Microsporum canis at 5 ug/disk in presence of long wave UV light; assay type: functional, organism-based
Microsporum canis [8] = assay: Phototoxicity against Microsporum canis at 5 ug/disk in presence of cool-white fluorescent light; assay type: functional, organism-based
Microsporum canis [9] = assay: Phototoxicity against Microsporum canis at 5 ug/disk in dark; assay type: functional, organism-based
Nannizzia gypsea = assay: Phototoxicity against Microsporum gypseum at 5 ug/disk in presence of long wave UV light; assay type: functional, organism-based
[10] = test system: Trichophyton mentagrophytes; assay: Phototoxicity against Trichophyton mentagrophytes at 5 ug/disk in presence of long wave UV light; assay type: functional, organism-based
Saccharomyces cerevisiae [11] = assay: Effect on Saccharomyces cerevisiae assessed as viable cell count at 10 ug/ml in petroleum ether after 1.33 Joules/cm'2 UV irradiation for 15 mins; assay type: functional
Saccharomyces cerevisiae [12] = assay: Effect on Saccharomyces cerevisiae assessed as viable cell count at 10 ug/ml in petroleum ether after 5.33 Joules/cm'2 UV irradiation for 60 mins; assay type: functional
Saccharomyces cerevisiae [13] = assay: Effect on Saccharomyces cerevisiae assessed as viable cell count at 10 ug/ml in petroleum ether in dark after 30 mins; assay type: functional
Saccharomyces cerevisiae [14] = assay: Effect on Saccharomyces cerevisiae assessed as viable cell count at 10 ug/ml in petroleum ether in dark after 60 mins; assay type: functional
[15] = Effect on human skin fibroblast cells assessed as viable cell count at 10 ug/ml in petroleum ether after 3.53 Joules/cm UV irradiation for 40 mins by trypan blue exclusion method; assay type: ADME, cell-based; details: read-out: Activity
[16] = Effect on human skin fibroblast cells assessed as viable cell count at 10 ug/ml in petroleum ether in dark after 60 mins by trypan blue exclusion method; assay type: ADME, cell-based; details: read-out: Activity
DNA [17] = assay: Photochemical activity against denatured calf thymus DNA at 10 ug after UV irradiation with 10.67 Joules/cm'2 for 120 mins by hyperchromicity test; assay type: nucleic-acid assay; details: Bos taurus; also: unit not given here
DNA [18] = assay: Photochemical activity against denatured calf thymus DNA at 10 ug in dark by hyperchromicity test; assay type: nucleic-acid assay; details: Bos taurus; also: unit not given here
DNA [19] = assay: Photochemical activity against denatured calf thymus DNA at in dark after 180 mins by hyperchromicity test; assay type: nucleic-acid assay; details: Bos taurus

Q: Which results are given for `CC#CC#CC#Cc1ccccc1` [PHENYLHEPTATRIYNE]?
A: Activity (Bacillus subtilis): Active; Activity (Enterococcus faecalis): inactive; Activity (Escherichia coli): inactive; Activity (Candida albicans): inactive; Activity (Saccharomyces cerevisiae [1]): Active; Activity (Saccharomyces cerevisiae [2]): inactive; Activity (Sporobolomyces [3]): Active; Activity (Sporobolomyces [4]): inactive; Activity (Torula): inactive; Activity (Fusarium sp. [5]): Active; Activity (Fusarium sp. [6]): inactive; Activity (Microsporum canis [7]): Active; Activity (Microsporum canis [8]): Active; Activity (Microsporum canis [9]): inactive; Activity (Nannizzia gypsea): Active; Activity [10]: Active; Activity (Saccharomyces cerevisiae [11]): 2.57; Activity (Saccharomyces cerevisiae [12]): 0; Activity (Saccharomyces cerevisiae [13]): 35.8; Activity (Saccharomyces cerevisiae [14]): 48.3; viability at 40 min, 10 ug/ml [15]: 50%; viability at 1 h, 10 ug/ml [16]: 100%; Activity (DNA [17]): 0.01; Activity (DNA [18]): 0.17; Activity (DNA [19]): 0.18
